From patent publication US20220033405A1, “PHARMACEUTICAL COMPOSITION FOR PREVENTING OR TREATING CANCER CONTAINING PLK1 INHIBITOR AS ACTIVE INGREDIENT” (NATIONAL CANCER CENTER, priority 2018, published 2022)

Experiments:
[1] = system: HepG2 orthotopic xenograft; experiment: Liver cancer orthotopic xenograft model (HepG2), 19 injections; assay type: in vivo, BalB/c nude mice; settings: M2 9.1 mg/kg
Method: 5×10^6 HepG2 cells, which are a hepatocellular carcinoma cell line, were injected into the back skin of BalB/c nude mice, and when a sufficient cancer tissue was formed about 3 weeks later, the tissue was removed, uniformly cut into 1 mm^3, and transplanted into the right median lobe of the liver by excising the abdomen within 1 cm.
The doses of 9.1 mg/kg of M2 and 1 mg/kg of BI2536 were selected based on the present inventor's previous in vitro experiments on HCC cells. Administration began 7 days after cell injection, and an equivalent amount of DMSO for the highest concentration of drug was used as a solvent control for each experiment. Each drug was injected a total of 19 injections based on 5 times/week.

HepG2 cells = experiment: Cell viability after treatment (Hoechst 33342); assay type: cell-based; settings: HepG2, various concentrations, two treatments 48 hours apart
Method: HepG2 cells, a hepatocellular carcinoma cell line, were plated with 4 to 6 replications at each hit compound concentration in a 96-well microtiter plate supplemented with a culture medium. The hit compound dissolved in DMSO was added the next day according to the design of experiments, and the number of seeded cells was determined by the cell density reaching 80% on the final day of the protocol treated as a cell control. After 24 hours of cell seeding, cells were treated with hit compounds (M2 and BI2536) at various concentrations, and 48 hours after primary treatment, the medium was aspirated and then secondary treatment was performed. After 48 hours, cell nuclei were visualized by 2.5 μM Hoechst 33342 staining at 37° C. for 30 minutes, then the medium was aspirated and washed with a fresh medium. The plate was read using Cytation™ 3 (BioTek, USA), the cell viability was analyzed, and the results were presented as a relative percentage of viable cells after treatment with the hit compound compared to the control treatment.

[2] = system: JIMT1 human breast cancer cells; experiment: Cancer cell growth inhibition, M2 variants in JIMT1; assay type: cell-based
Method: To examine the ability of the compound to inhibit the growth of the breast cancer cell line, the compounds was treated at each indicated μM concentration 1 and 3 days after cell attachment, and the control was treated with a 0.1% solvent (DMSO). After another two days, the cell lines that were attached to the culture plate and grew were rinsed with 1×PBS and treated with 4% paraformaldehyde at room temperature for 10 minutes to fix the cells. Then, after cells were rinsed twice with PBS, the fixed cells were treated with a 0.5% Triton X-100 solution and reacted at room temperature for 15 minutes, rinsed another three times with PBS, and then treated with a DAPI reagent at 0.5 μg/ml, and reacted at 37° C. for 10 minutes to stain the cell nuclei. After the cells were additionally rinsed once with PBS, cells stained with DAPI were photographed by Cytation 3, and the resulting images were analyzed with Gen5 software (Biotek, USA). Meanwhile, cells that grew in a floating manner without being attached to the culture plate were treated with a 4% paraformaldehyde solution, reacted at room temperature for 10 minutes to fix the cells, and then photographed in a bright field by Cytation3, and the resulting images were analyzed by Gen5 software (Biotek, USA).

[3] = system: NCAPG2 in HEK293 cell line; experiment: Staining of NCAPG2 in chromosome arm and kinetochore; assay type: cell-based; settings: HEK293, 50 uM, 24 hours, compared to the control
HepG2 cell = experiment: Apoptosis by annexin V-FITC / PI flow cytometry; assay type: cell-based; settings: HepG2, 3 days; M2 20 or 100 μM; BI2536 20 or 100 nM
Method: To analyze the pattern of apoptosis by exposure to M2, HepG2 cell, a hepatocellular carcinoma cell line, were treated with 20 or 100 μM M2 and 20 or 100 nM BI2536 for 3 days. The apoptosis was detected by annexin V-fluorescein isothiocyanate (annexin V-FITC) and propidium iodide (PI) staining of necrotic and apoptosis cells. First, cells were harvested and washed once with PBS. The cells were then resuspended in a 100 μl binding buffer containing 4 μl of Annexin V (BD, 51-65874X) and PI (BD, 51-66211E). The cells were stained at 37° C. for 15 minutes in the dark and then analyzed using FACSan (BD, San Jose, Calif.). Data was analyzed using CELLQuest software (BD).

liver cancer cell lines = experiment: Mixed treatment of Compound 2 (M2) and BI2536; assay type: cell-based; settings: mixture of Compound 2 (M2) at a low concentration and BI2536
[4] = system: HepG2 orthotopic xenograft; experiment: Liver cancer orthotopic xenograft model (HepG2), 5 and 20 mg/kg; assay type: in vivo, BalB/c nude mice; settings: M2 5 and 20 mg/kg i.p. once every two days, 10 treatments for 3 weeks
Method: Another experiment was performed on the same liver cancer cell line by varying the experimental method. 5×10^6 HepG2 cells were injected into the backs of BalB/c nude mice, and when a sufficient cancer tissue was formed about 3 weeks later, the tissue was removed, uniformly cut into 1 mm^3, and transplanted into the right median lobe of the liver by excising the abdomen within 1 cm.
Small spots were confirmed on the MRI image about 10 days after transplanting the liver cancer tissue into 20 BalB/C nude mice by the above method, so that rodents with well-established liver cancer were divided into 3 groups (about 50 to 60%) (see FIG. 21A), a control and a hit (M2) material at 5 mg/kg and 20 mg/kg were injected into the abdominal cavity once every two days using less than 1.5% DMSO as a solvent (vehicle), and once a week, MRI images were used to select (follow up) rodents with constant tissue growth. Then, in a state in which the rapidly growing cancer tissue was 1 cm or less, the cancer tissue was observed after sacrificing the mice (10 treatments for 3 weeks).

human liver cancer PDX = experiment: Orthotopic xenograft model using human liver cancer PDX; assay type: in vivo, BalB/C nude mice; settings: M2 40 mg/kg i.p. once every two days, 11 treatments for 3 weeks
Method: A cancer tissue isolated from human liver cancer was transplanted into skin tissues of BalB/C nude mice and the skin tissues were grown into cancer tissues, so that a tissue established as a PDX model was used, uniformly cut into 1 mm^3, and transplanted into the right median lobe of the liver by excising the abdomen within 1 cm. Sm all spots were confirmed on the MRI image about 10 days after transplanting the liver cancer tissue into 20 BalB/C nude mice by the above method, so that rodents with well-established liver cancer were divided into 3 groups (see FIGS. 22A, 22B, and 22C), a solvent control (DMSO), a hit (M2) material at 40 mg/kg, and BI2536 at 4 mg/kg were injected into the abdominal cavity once every two days using less than 1.5% DMSO as a solvent (vehicle), and once a week, MRI images were used to select (follow up) rodents with constant tissue growth. Then, when the rapidly growing cancer tissue was 1 cm or less, the cancer tissue was observed after sacrificing the mice (11 treatments for 3 weeks).

In the case of `Cn1c2nc(=O)[nH]c(=O)c-2nc2ccccc21` [Compound 2, 10-methyl-2H,3H,4H,10H-benzo[g]pteridine-2,4-dione], the “progression of the HCC xenograft calculated by the growth inhibition index” value ([1]; BI2536 1 mg/kg, 19 injections) is reported as “suppressed the progression of the HCC xenograft”, the “growth of tumor cells (macroscopic morphology, MRI)” value ([1]; BI2536 1 mg/kg, 19 injections, 5 times/week) is reported as “the growth of tumor cells was suppressed” and the mitotic index ([1]; histological staining, compared to the control) is reported as “decreased”. The cell viability (HepG2 cells) was “the relatively less the cell viability became”, the “number of cancer cells” value [2] was “remarkably reduced the number of cancer cells in a dose-dependent manner” and the “degree of staining of NCAPG2 in the chromosome arm and kinetochore” value [3] was “reduced”. The apoptosis cells (HepG2 cell) was “apoptosis cells were increased”, the “apoptosis with increasing dose” value (HepG2 cell) was “apoptosis was increased in a dose-dependent manner” and the “inhibition of cancer cells by mixed treatment” value (liver cancer cell lines) was “the cooperative ability of BI2536 to inhibit cancer cells could be observed”. The “volume of the cancer tissue” value [4] was “reduced remarkably as the dose of M2 was increased”, the “weight of the cancer tissue” value [4] was “reduced remarkably as the dose of M2 was increased” and the “volume of the cancer tissue” value (human liver cancer PDX) was “reduced remarkably”. The “weight of the cancer tissue” value (human liver cancer PDX) was “reduced remarkably”.
